In brackets after ≈: the same amount, converted by molar mass. Like-named read-outs stand apart in the source and are kept apart here. Marks after values point to notes of the source that are not given here.
What was measured:
[1] = tested on: Staphylococcus aureus (MRSA and MSSA strains); assay: Time kill assay, single agents at 1×MIC (CLSI); assay type: cell-based
Staphylococcus aureus = assay: MIC, broth microdilution (CLSI M07-A9); assay type: cell-based; conditions: for MIC90: with reducing agent
MRSA strain 269 (MW2) = assay: Combination MIC study in the presence of 15% surfactant (Survanta); assay type: cell-based, Staphylococcus aureus; conditions: PlySs2 plus daptomycin
[2] = tested on: MRSA Staphylococcus aureus strain (MW2); assay: microbe, parasite or virus in culture; assay type: cell-based; conditions: for MIC: Staphylococcus aureus, MRSA
S. aureus [3] = assay: Cell envelope binding of BODIPY-fluorescein-labeled antibiotics; assay type: cell-based
Experimental: As a complement to the synergy studies, daptomycin and vancomycin cell envelope-binding was examined using BODIPY-fluorescein-labeled antibiotics in the presence and absence of sub-MIC levels of CF-301. […] Similarly, cell wall-labeling with vancomycin occurs within 5 minutes in the presence of CF-301 (⅛^th MIC) versus 30 minutes without CF-301 (FIG. 20B). For both antibiotics, the labeling was first observed at bacterial division planes.

S. aureus [4] = assay: Murine bacteremia model, survival; assay type: in vivo, BALB/c mice
MRSA S. aureus strains = assay: Dual agent MIC assay (PlySs2 and daptomycin together, broth microdilution); assay type: cell-based; conditions: for MIC combo: PlySs2 and daptomycin combined; for MIC: Staphylococcus aureus, MRSA
[5] = tested on: MRSA strain MW2 and MSSA strain ATCC 29213; assay: MIC in the presence of surfactant (Survanta), broth microdilution; assay type: cell-based, Staphylococcus aureus
[6] = tested on: MRSA strain ATCC 700699 and MSSA strain ATCC 25923; assay: microbe, parasite or virus in culture; assay type: cell-based, Staphylococcus aureus; conditions: Staphylococcus aureus
[7] = high challenge (10^9 CFU MRSA MW2), dosing at 2 hours, daptomycin 50 mg/kg once daily, PlySs2 5.25 mg/kg (FIG. 27B)

Which “kill within 6 hours” value ([1]; 1×MIC) does the source give for `Cc1onc(-c2ccccc2)c1C(=O)N[C@@H]1C(=O)N2[C@@H]1SC(C)(C)[C@@H]2C(=O)O` [Oxacillin, oxacillin] here?
Its value is 2 log10.

What about the “relative effectiveness among antibiotic agents” value ([1]; MSSA strains) of the same molecule?
Its value is “least effective”.

And the MIC50/90 (Staphylococcus aureus; MRSA (n = 45))?
Its MIC50/90 is >4*.

And the “MIC50/90 [uM]” value (Staphylococcus aureus; MRSA (n = 45))?
The value was over 10.0 µM.

How did the “time to reach bactericidal levels (≥3-log10 reduction in CFUs)” value ([1]; 1×MIC, 20 MSSA and 42 MRSA strains) turn out when `CCCCCCCCCC(=O)N[C@@H](Cc1c[nH]c2ccccc12)C(=O)N[C@H](CC(N)=O)C(=O)N[C@@H](CC(=O)O)C(=O)N[C@@H]1C(=O)NCC(=O)N[C@@H](CCCN)C(=O)N[C@@H](CC(=O)O)C(=O)N[C@H](C)C(=O)N[C@@H](CC(=O)O)C(=O)NCC(=O)N[C@H](CO)C(=O)N[C@@H]([C@H](C)CC(=O)O)C(=O)N[C@@H](CC(=O)c2ccccc2N)C(=O)O[C@@H]1C` [Daptomycin] was run?
Its value is 6 hours.

And the “effective concentration in combination as fraction of MIC” value (MRSA strain 269 (MW2))?
Its value is 1/1024.

And the “most dilute concentration in combination that still inhibits growth” value (MRSA strain 269 (MW2))?
Its value is 0.25 µg/mL.

And the MIC ([2]; read-out: daptomycin MIC, ending values, passaged with PlySs2 (4 ug/ml) plus daptomycin, 30-day study)?
Its MIC is 4 µg/mL.

And the MIC ([2]; read-out: daptomycin MIC, ending values, three daptomycin-only cultures, 30-day study)?
The MIC was 128 µg/mL (≈ 79 µM).

And the “antibiotic MIC, starting value” ([2]; before serial passage)?
Its value is 1 µg/mL.

And the “increase of daptomycin MIC” value ([2]; daptomycin-only cultures, 30-day study)?
Its value is 64 to 128 fold.

What about the “increase of daptomycin MIC” value ([2]; passaged with PlySs2 (4 ug/ml) plus daptomycin) of the same molecule?
The value was 4 fold.

And the “daptomycin MIC, ending values” ([2]; three daptomycin-only cultures, 30-day study)?
The value was 64 µg/mL.

And the “time to antibiotic penetration (BODIPY-labeled daptomycin binding)” value (S. aureus [3]; in the presence of CF-301 at 1/32nd MIC)?
Its value is 15 min.

And the “time to antibiotic penetration (BODIPY-labeled daptomycin binding)” value (S. aureus [3]; without CF-301)?
Its value is 180 min.

What about the “24 hour survival rate” value (S. aureus [4]; [7]) of the same molecule?
Its value is 47%.

What about the “72 hour survival rate” value (S. aureus [4]; [7]) of the same molecule?
The value was 31%.

What about the “survival at 72 hours” value (S. aureus [4]; low challenge model (up to 7×10^6 CFU MRSA MW2), single dose at 4 hours, PlySs2 1.25 mg/kg, daptomycin 2 mg/kg) of the same molecule?
Its value is 23%.

And the Fold reduction (MRSA S. aureus strains; MRSA strain 223)?
Its Fold reduction is 128.

And the MIC combo (MRSA S. aureus strains; MRSA strain 223)?
The MIC combo was 0.0075 µg/mL.

And the Fold reduction (MRSA S. aureus strains; MRSA strain 241)?
The Fold reduction was 256.

And the MIC combo (MRSA S. aureus strains; MRSA strain 241)?
The MIC combo was 0.0037 µg/mL.

What about the Fold reduction (MRSA S. aureus strains; MRSA strain 263) of the same molecule?
Its Fold reduction is 128.

And the MIC combo (MRSA S. aureus strains; MRSA strain 263)?
The MIC combo was 0.0075 µg/mL.

And the Fold reduction (MRSA S. aureus strains; MRSA strain 269 (MW2))?
The Fold reduction was 64.

What about the MIC combo (MRSA S. aureus strains; MRSA strain 269 (MW2)) of the same molecule?
The MIC combo was 0.015 µg/mL.

And the Fold reduction (MRSA S. aureus strains; MRSA strain 270)?
Its Fold reduction is 64.

What about the MIC combo (MRSA S. aureus strains; MRSA strain 270) of the same molecule?
The MIC combo was 0.015 µg/mL.

And the Fold reduction (MRSA S. aureus strains; MRSA strain 553)?
Its Fold reduction is 128.

And the MIC combo (MRSA S. aureus strains; MRSA strain 553)?
Its MIC combo is 0.0075 µg/mL.

And the Fold reduction (MRSA S. aureus strains; MRSA strain 650)?
The Fold reduction was 64.

What about the MIC combo (MRSA S. aureus strains; MRSA strain 650) of the same molecule?
Its MIC combo is 0.015 µg/mL.

What about the Fold reduction (MRSA S. aureus strains; MRSA strain 827) of the same molecule?
The Fold reduction was 128.

What about the MIC combo (MRSA S. aureus strains; MRSA strain 827) of the same molecule?
The MIC combo was 0.0075 µg/mL.

And the Fold reduction (MRSA S. aureus strains; MRSA strain 828)?
The Fold reduction was 128.

And the MIC combo (MRSA S. aureus strains; MRSA strain 828)?
The MIC combo was 0.0075 µg/mL.

What about the Fold reduction (MRSA S. aureus strains; MRSA strain 829) of the same molecule?
Its Fold reduction is 128.

And the MIC combo (MRSA S. aureus strains; MRSA strain 829)?
The MIC combo was 0.0075 µg/mL.

And the Fold reduction (MRSA S. aureus strains; MRSA strain 830)?
Its Fold reduction is 64.

And the MIC combo (MRSA S. aureus strains; MRSA strain 830)?
The MIC combo was 0.015 µg/mL.

And the Fold reduction (MRSA S. aureus strains; MRSA strain 833)?
The Fold reduction was 128.

And the MIC combo (MRSA S. aureus strains; MRSA strain 833)?
Its MIC combo is 0.0075 µg/mL.

And the “fold reduction in the effective MIC” value (MRSA S. aureus strains; PlySs2 and daptomycin together, a dozen MRSA strains)?
The value was 16-256 fold.

And the MIC (MRSA S. aureus strains; MRSA strain 223, single-agent, read-out: MIC alone)?
The MIC was 1 µg/mL (≈ 0.617 µM).

And the MIC (MRSA S. aureus strains; MRSA strain 241, single-agent, read-out: MIC alone)?
The MIC was 1 µg/mL (≈ 0.617 µM).

What about the MIC (MRSA S. aureus strains; MRSA strain 263, single-agent, read-out: MIC alone) of the same molecule?
The MIC was 1 µg/mL (≈ 0.617 µM).

What about the MIC (MRSA S. aureus strains; MRSA strain 269 (MW2), single-agent, read-out: MIC alone) of the same molecule?
Its MIC is 1 µg/mL (≈ 0.617 µM).

What about the MIC (MRSA S. aureus strains; MRSA strain 270, single-agent, read-out: MIC alone) of the same molecule?
The MIC was 1 µg/mL (≈ 0.617 µM).

What about the MIC (MRSA S. aureus strains; MRSA strain 553, single-agent, read-out: MIC alone) of the same molecule?
Its MIC is 1 µg/mL (≈ 0.617 µM).

And the MIC (MRSA S. aureus strains; MRSA strain 650, single-agent, read-out: MIC alone)?
Its MIC is 1 µg/mL (≈ 0.617 µM).

And the MIC (MRSA S. aureus strains; MRSA strain 827, single-agent, read-out: MIC alone)?
Its MIC is 1 µg/mL (≈ 0.617 µM).

What about the MIC (MRSA S. aureus strains; MRSA strain 828, single-agent, read-out: MIC alone) of the same molecule?
Its MIC is 1 µg/mL (≈ 0.617 µM).

And the MIC (MRSA S. aureus strains; MRSA strain 829, single-agent, read-out: MIC alone)?
Its MIC is 1 µg/mL (≈ 0.617 µM).

And the MIC (MRSA S. aureus strains; MRSA strain 830, single-agent, read-out: MIC alone)?
The MIC was 1 µg/mL (≈ 0.617 µM).

What about the MIC (MRSA S. aureus strains; MRSA strain 833, single-agent, read-out: MIC alone) of the same molecule?
The MIC was 1 µg/mL (≈ 0.617 µM).

And the MIC (MRSA S. aureus strains; daptomycin as single agent, read-out: MIC)?
Its MIC is 1 µg/mL (≈ 0.617 µM).

And the MIC (MRSA S. aureus strains; daptomycin with 0.25× MIC PlySs2, read-out: MIC)?
The MIC was 0.0075 µg/mL (≈ 0.00463 µM).

What about the “decrease of MIC” value (MRSA S. aureus strains; daptomycin with 0.25× MIC PlySs2) of the same molecule?
Its value is 128 fold.

And the “degree of potency enhancement” value (MRSA S. aureus strains; daptomycin with PlySs2, across 12 MRSA strains)?
The value was 64 to 256 fold.

And the “inhibition of MIC by surfactant” value ([5]; Survanta, up to 15%)?
Its value is “up to 256 fold”.

And the “inhibition of MIC by surfactant” value ([5]; surfactant concentration of 1.25%)?
Its value is “more than 20 fold”.

And the MIC ([6]; 504 h, read-out: MIC in daptomycin resistant clones)?
Its MIC is 18 µg/mL (≈ 11.1 µM).

And the MIC ([6]; read-out: MIC before daptomycin resistance selection)?
The MIC was 1 µg/mL (≈ 0.617 µM).

And the MIC90 (Staphylococcus aureus; DRSA (n = 8))?
Its MIC90 is 16.

What about the MIC90 (Staphylococcus aureus; LRSA (n = 5)) of the same molecule?
Its MIC90 is 1.

And the MIC90 (Staphylococcus aureus; MRSA (n = 45))?
Its MIC90 is 1.

And the MIC90 (Staphylococcus aureus; MSSA (n-28))?
Its MIC90 is 1.

What about the MIC90 (Staphylococcus aureus; Staphylococcus aureus, DRSA (n = 8), read-out: MIC90) of the same molecule?
The MIC90 was 9.9 µM (≈ 16 µg/mL).

And the MIC90 (Staphylococcus aureus; Staphylococcus aureus, LRSA (n = 5), read-out: MIC90)?
Its MIC90 is 0.6 µM (≈ 0.972 µg/mL).

What about the MIC90 (Staphylococcus aureus; Staphylococcus aureus, MRSA, MRSA (n = 45), read-out: MIC90) of the same molecule?
The MIC90 was 0.6 µM (≈ 0.972 µg/mL).

And the MIC90 (Staphylococcus aureus; Staphylococcus aureus, MSSA, MSSA (n-28), read-out: MIC90)?
Its MIC90 is 0.6 µM (≈ 0.972 µg/mL).

And the MIC90 (Staphylococcus aureus; Staphylococcus aureus, VISA, VISA (n = 10), read-out: MIC90)?
Its MIC90 is 4.9 µM (≈ 7.94 µg/mL).

And the MIC90 (Staphylococcus aureus; Staphylococcus aureus, VRSA, VRSA (n = 14), read-out: MIC90)?
Its MIC90 is 0.6 µM (≈ 0.972 µg/mL).

And the MIC90 (Staphylococcus aureus; VISA (n = 10))?
Its MIC90 is 8.

And the MIC90 (Staphylococcus aureus; VRSA (n = 14))?
Its MIC90 is 1.

From US20210008175A1, “BACTERIOPHAGE LYSIN AND ANTIBIOTIC COMBINATIONS AGAINST GRAM POSITIVE BACTERIA” (priority 2012, published 2021)
